Experimental data published in US20250122167A1, “Pyrazine Compounds Useful in the Treatment of Parasitic Protozoal Infection” (priority 2021, published 2025).
Where a name gives a salt, the structure may show the parent alone. Read-outs that look alike come from different tables or passages of the source.

Key:
[1] = tested on: P. falciparum 3D7A strain parasitized red blood cells; test: P. falciparum growth inhibition assay Sybr Green; format: cell-based, Plasmodium falciparum; settings: for IC50: Plasmodium falciparum, Erythrocyte, 48 h
Experimental: P. falciparum Growth Inhibition Assay Sybr Green
The parasite growth is determined measuring the staining of the DNA's minor groove with SYBR Green I, which labels the remaining parasites. The DNA-SYBR complex absorbs light reaching the peak at λ=498 nm and emits at a peak of λ=522 nm.
Briefly, a culture of 3D7A strain parasitized red blood cells (RBC) (0.5% parasitemia and 2% haematocrit in RPMI-1640 supplemented with 25 ml albumax and […] hypoxanthine for 500 ml) is exposed to 3-fold serial dilutions of the compound. Plates are incubated 48 h at 37° C., 5% CO2, 5% O2, 90% N2. At 48 h of incubation, SyberGreen I solution (2×) is added and plates are incubated for 30 minutes at 37° C., 5% CO2, 5% O2, 90% N2 and then plates are frozen at −80° C. Then plates are read in the EnVision (EnVision Multilabel Plate Reader, Perkin Elmer). Data (pIC50) are generated by ActivityBase (IDBS) and graphs are checked by Spotfire.
Inhibition of parasite growth in whole cell assay (infected human eritrocites) in vitro is directly linked to reduction of parasitemia in vivo.

[2] = tested on: Plasmodium falciparum Pf3D7^0087/N9; test: P. falciparum in vivo efficacy assay (humanised mouse model); settings: NODscidIL2Rγ mice engrafted with human erythrocytes; for ED90 mean: parasitemia by microscopy and flow cytometry; for AUCED90 mean: blood exposure (AUC0-23h after first dose) at ED90
Experimental: Antimalarial in vivo efficacy was determined using the P. falciparum mouse model following the procedure described in: Jimenez-Díaz, M. B., Mulet, T., Viera, S., Gómez, V., Garuti, H., Ibañez, J., Alvarez-Doval, A., Shlutz, D. L., Martinez, A., Improved Murine Model Of Malaria Using Plasmodium falciparum (Competent Strains and Non-Myelodepleted NOD-scid IL2R_null Mice Engrafted with Human Erythrocytes) Antimicrob. Agents Chemother 2009, 53 (10), 4533-4536.
The goal of the study was to assess the therapeutic efficacy of the examples against Plasmodium falciparum Pf3D7^0087/N9 growing in peripheral blood of NODscidIL2Ry^0087/N9 mice engrafted with human erythrocytes. The levels of the examples were measured in serial peripheral blood samples obtained from each mouse of the efficacy experiment during the first 23 hrs after the first dose. The area under the curve of levels of compound is used to estimate the exposure in blood during the first 23 hours after the first administration (AUC0-23h).
The effect of Examples 1, 2, 5, 7, 8 and 10 on P. Falciparum Pf3D7^0087/N9 was assessed by microscopy and flow cytometry.

[3] = Kinetic aqueous solubility in PBS pH 7.4 (HPLC-CAD); format: physicochemical; settings: PBS pH7.4, room temperature, 1 hour equilibration; for solubility at 1 h / solubility kinetic at 1 h: phosphate buffered saline (PBS), pH 7.4, aqueous buffer, kinetic from dmso stock; for solubility kinetic at 1 h: read-out: Concentration; for Solubility: from DMSO stock
Experimental: The kinetic aqueous solubility was measured at room temperature after 1 hour equilibration in aqueous phosphate buffered saline (PBS) at pH7.4, and is determined by measuring the concentration of solute in solution after precipitation from DMSO stock solution.
The sample plate was left to equilibrate for 1 hour at room temperature.
Vacuum filtration was applied to filter the solution into a 96-well collection plate.
The filtrate was analysed by HPLC-CAD (Charged Aerosol Detector).
Calibration standards of Ketoconazole and Primidone were prepared by serial dilutions in DMSO at concentrations ranging from 0.016 to 4.5 mg/ml to produce the calibration curve.

physchem = settings: Fasted State Simulated Intestinal Fluid (FaSSIF), pH 6.5, fassif, thermodynamic from solid
[4] = Equilibrium solubility in Fasted State Simulated Intestinal Fluid (FaSSIF); settings: FaSSIF pH 6.5, room temperature, 4 hour equilibration, dynamic range 1-1000 μg/ml
[5] = average, 48 h incubation, SYBR Green I readout, dihydrochloride
[6] = range of values, 48 h incubation, SYBR Green I readout, dihydrochloride
[7] = average, 48 h incubation, SYBR Green I readout, read-out: Average value pIC50 (converted)
[8] = range of values, 48 h incubation, SYBR Green I readout, read-out: Pf3D7 pIC50 (converted)
[9] = average, 48 h incubation, SYBR Green I readout, ditrifluoroacetic acid salt
[10] = range of values, 48 h incubation, SYBR Green I readout, ditrifluoroacetic acid salt
[11] = read-out: Average value pIC50, average (converted), 48 h incubation, SYBR Green I readout
[12] = read-out: Pf3D7 pIC50, range of values (converted), 48 h incubation, SYBR Green I readout

SMILES: NC1(CNC(=O)c2ccc(-c3cncc(-c4cncc(F)c4)n3)cc2)CCC1 [Example 2, N-((1-aminocyclobutyl)methyl)-4-(6-(5-fluoropyridin-3-yl)pyrazin-2-yl)benzamide, dihydrochloride]
- Average value pIC50 [1, 5]: 8.50
- Pf3D7 pIC50 [1, 6]: 8.47-8.63
- ED90 mean ([2]; dihydrochloride): 1.14 mg/kg
- AUCED90 mean ([2]; dihydrochloride): 0.121 mg · h · mL^−1 · day^−1
- solubility at 1 h [3]: ≥ 126 µg/mL
- solubility kinetic at 1 h [3]: ≥ 335 mM
- solubility at 4 h (physchem): 398 µg/mL

SMILES: NC1(CNC(=O)c2ccc(-c3cncc(-c4cncc(F)c4)n3)cc2)CCC1 [Example 3, N-((1-aminocyclobutyl)methyl)-4-(6-(5-fluoropyridin-3-yl)pyrazin-2-yl)benzamide, sulfuric acid salt]
- IC50 [1, 7]: 3.16 nM
- IC50 [1, 8]: 2.51 to 5.01 nM
- Solubility [3]: ≥94.7 µg/mL

SMILES: NC1(CNC(=O)c2ccc(-c3cncc(-c4cncc(F)c4)n3)cc2)CCC1 [Example 1, N-((1-aminocyclobutyl)methyl)-4-(6-(5-fluoropyridin-3-yl)pyrazin-2-yl)benzamide, ditrifluoroacetic acid salt]
- Average value pIC50 [1, 9]: 8.50
- Pf3D7 pIC50 [1, 10]: 8.48-8.60
- ED90 mean ([2]; ditrifluoroacetic acid salt): 1.28 mg/kg
- AUCED90 mean ([2]; ditrifluoroacetic acid salt): 0.067 mg · h · mL^−1 · day^−1
- solubility at 1 h [3]: ≥ 124 µg/mL
- solubility kinetic at 1 h [3]: ≥ 329 mM
- FaSSIF solubility ([4]; ditrifluoroacetic acid salt): 429 µg/mL

SMILES: N[C@@H]1CCCC[C@@H]1NC(=O)c1ccc(-c2cncc(-c3cncc(F)c3)n2)cc1 [Example 8, N-((1S,2R)-2-aminocyclohexyl)-4-(6-(5-fluoropyridin-3-yl)pyrazin-2-yl)benzamide, dihydrochloride]
- Average value pIC50 [1, 5]: 8.40
- Pf3D7 pIC50 [1, 6]: 8.33-8.6
- ED90 mean ([2]; dihydrochloride): 1.59 mg/kg
- AUCED90 mean ([2]; dihydrochloride): 0.26 mg · h · mL^−1 · day^−1
- solubility at 1 h [3]: ≥ 106 µg/mL
- solubility kinetic at 1 h [3]: ≥ 271 mM
- FaSSIF solubility ([4]; dihydrochloride): >1000 µg/mL

SMILES: NC1(CNC(=O)c2ccc(-c3cncc(-c4cncc(F)c4)n3)cc2)CCC1 [Example 4, N-((1-aminocyclobutyl)methyl)-4-(6-(5-fluoropyridin-3-yl)pyrazin-2-yl)benzamide]
- Average value pIC50 ([1]; average, 48 h incubation, SYBR Green I readout): 8.60
- Pf3D7 pIC50 ([1]; range of values, 48 h incubation, SYBR Green I readout): 8.54-8.76
- Solubility [3]: ≥129.8 µg/mL
- FaSSIF solubility [4]: >1000 µg/mL

SMILES: N[C@@H]1CCCC[C@@H]1NC(=O)c1ccc(-c2cncc(-c3cncc(F)c3)n2)cc1 [Example 9, N-((1S,2R)-2-aminocyclohexyl)-4-(6-(5-fluoropyridin-3-yl)pyrazin-2-yl)benzamide, ditrifluoroacetic acid salt]
- Average value pIC50 [1, 9]: 8.60
- Pf3D7 pIC50 [1, 10]: 8.53-8.60
- solubility at 1 h [3]: 115 µg/mL
- solubility kinetic at 1 h [3]: 293 mM
- solubility at 4 h (physchem): 789 µg/mL

SMILES: N[C@@H]1CCCC[C@@H]1NC(=O)c1ccc(-c2cncc(-c3cncc(F)c3)n2)cc1 [Example 10, N-((1S,2R)-2-aminocyclohexyl)-4-(6-(5-fluoropyridin-3-yl)pyrazin-2-yl)benzamide]
- IC50 [1, 7]: 3.16 nM
- IC50 [1, 8]: 3.09 to 3.8 nM
- ED90 mean [2]: 0.95 mg/kg
- AUCED90 mean [2]: 0.20 mg · h · mL^−1 · day^−1
- Solubility [3]: ≥136.2 µg/mL
- FaSSIF solubility [4]: 941 µg/mL

SMILES: NC1(CNC(=O)c2ccc(-c3cncc(-c4cncc(F)c4)n3)cc2)CC1 [Example 5, N-((1-aminocyclopropyl)methyl)-4-(6-(5-fluoropyridin-3-yl)pyrazin-2-yl)benzamide, dihydrochloride]
- IC50 [1, 11]: 3.16 nM
- IC50 [1, 12]: 2.51 to 4.57 nM
- ED90 mean [2]: 1.04 mg/kg
- AUCED90 mean [2]: 0.13 mg · h · mL^−1 · day^−1
- solubility at 1 h [3]: ≥ 114 µg/mL
- solubility kinetic at 1 h [3]: ≥ 313 mM
- FaSSIF solubility ([4]; dihydrochloride): 380 µg/mL

SMILES: CC(C)(N)CNC(=O)c1ccc(-c2cncc(-c3cncc(F)c3)n2)cc1 [Example 7, N-(2-amino-2-methylpropyl)-4-(6-(5-fluoropyridin-3-yl)pyrazin-2-yl)benzamide, ditrifluoroacetic acid salt]
- IC50 [1, 11]: 7.94 nM
- IC50 [1, 12]: 7.08 to 8.91 nM
- ED90 mean [2]: 1.74 mg/kg
- AUCED90 mean [2]: 0.05 mg · h · mL^−1 · day^−1
- solubility at 1 h [3]: ≥ 84.4 µg/mL
- solubility kinetic at 1 h [3]: ≥ 231 mM
- solubility at 4 h (physchem): 742 µg/mL

SMILES: NC1(CNC(=O)c2ccc(-c3cncc(-c4cncc(F)c4)n3)cc2)CC1 [Example 6, N-((1-aminocyclopropyl)methyl)-4-(6-(5-fluoropyridin-3-yl)pyrazin-2-yl)benzamide, ditrifluoroacetic acid salt]
- solubility at 1 h [3]: ≥ 200 µg/mL
- solubility kinetic at 1 h [3]: ≥ 549 mM
- solubility at 4 h (physchem): 339 µg/mL
